According to US20100248377A1, “DETECTION OF CONTRAST MEDIUM-INDUCED NEPHROTOXICITY” (priority 2007, published 2010):

Tests used:
Type in all cases: in vivo, human
[1] = system: urotensin II (urine); assay: Example 2 study, 20 PCTA subjects, urine urotensin II after contrast medium; conditions: for Urotensin II, median: urine, n = 20, t = 0 h value 1.18
Description: (§1) In a different study, the effect of the administration of the contrast medium lobitridol (Xenetix, Xen 350) on the urine level of creatinine, urotensin II, total adiponectin and L-FABP in samples obtained from 20 subjects which underwent percutaneous transluminal coronary angioplasty (PCTA) was analyzed. Samples were obtained prior to the administration of the contrast medium (t=0 h), four hours after administration of the contrast medium (t=4 h), as well as 24 hours after administration of the contrast medium.

[2] = system: L-FABP (urine); assay: Example 3 case, coronary angiography, urine L-FABP; conditions: person, 350 ml, 24 hours after administration; before 7
Description: (§2) In order to examine whether the chest pain is caused by a coronary artery disease, a coronary angiography is initiated. A serum sample is obtained from the patient prior to the angiography and the amount of creatinine is determined in a serum sample (0.9 mg/dl). Moreover, in a urine sample HMW adiponectin, urotensin II and L-FABP are determined (adiponectin 0.92 μg/g Creatinine; L-FABP 7 μg/g Creatinine; Urotensin II: 1.2 μg/g Creatinine).
(§3) For coronary angiography 350 ml Xen350 are administered to the patient as a contrast medium. After successful coronary angiography, the patient is monitored for 24 hours. Moreover, creatinine (serum level: 1 mg/dl), adiponectin, L-FABP and urotensin II are determined again after 24 hours after the administration of the contrast medium (urine level: adiponectin 1.55 μg/g Creatinine; L-FABP 21 μg/g Creatinine; Urotensin II: 6 μg/g Creatinine).

[3] = system: urotensin II (urine); assay: Dose response analysis, urotensin II in urine of PCTA patients after contrast medium; conditions: 24 h after vs before administration; six patients, 50-350 ml
Description: (§4) The effect of the administration of various amounts of the contrast medium Iobitridol (Xenetix, Xen 350) on the level of creatinine, urotensin II, total adiponectin and L-FABP in urine samples obtained from subjects which underwent percutaneous transluminal coronary angioplasty (PCTA) was analysed. All six patients examined in this study had no apparent renal disorder indicated by a serum creatinine level of less than 1.2 mg/dl (before PCTA). Each patient received a different amount of the contrast medium (50 ml, 80 ml, 100 ml, 150 ml, 220 ml and 350 ml, respectively). The urinary levels of creatinine, urotensin II, total adiponectin and L-FABP were determined in samples that were obtained prior to the administration of different volumes of the contrast medium (time point 0) and 24 h after the administration of the contrast medium. […] The results are normalized to the urinary creatinine concentration. From the data it clearly can be seen that a high dose of an administered contrast medium leads to a significant increase of adiponectin and L-FABP.

[4] = system: creatinine (urine); assay: Dose response analysis, creatinine in urine of PCTA patients after contrast medium; conditions: 24 h after vs before administration; six patients, 50-350 ml
Description: as §4

[5] = system: urotensin II (urine); assay: Example 3 case, coronary angiography, urine urotensin II; conditions: person, 350 ml, 24 hours after administration; before 1.2
Description: as §2, §3

[6] = system: HMW adiponectin (urine); assay: Example 3 case, coronary angiography, urine HMW adiponectin; conditions: person, 350 ml, 24 hours after administration; before 0.92
Description: as §2, §3

[7] = system: total adiponectin (urine); assay: Dose response analysis, total adiponectin in urine of PCTA patients after contrast medium; conditions: for Adiponectin Changes: 24 h vs 0 h; for 24 h Adiponectin: urine
Description: as §4

[8] = system: serum creatinine; assay: Example 3 case, coronary angiography, serum creatinine and renal outcome; conditions: person, 350 ml
Description: as §2, §3

[9] = system: creatinine (urine); assay: Example 2 study, 20 PCTA subjects, urine creatinine after contrast medium; conditions: n = 20, t = 0 h value 0.75
Description: as §1

[10] = system: L-FABP (urine); assay: Dose response analysis, L-FABP in urine of PCTA patients after contrast medium; conditions: for L-FABP Changes: 24 h vs 0 h; for 24 h L-FABP: urine
Description: as §4

[11] = system: total adiponectin (urine); assay: Example 2 study, 20 PCTA subjects, urine total adiponectin after contrast medium; conditions: n = 20, t = 0 h value 0.66
Description: as §1

[12] = system: L-FABP (urine); assay: Example 2 study, 20 PCTA subjects, urine L-FABP after contrast medium; conditions: for L-FABP, median: urine, n = 20, t = 0 h value 13.44
Description: as §1

[13] = 24 h after vs before administration, six patients, 50-350 ml

## CN(CC(O)CO)C(=O)c1c(I)c(NC(=O)C(CO)CO)c(I)c(C(=O)N(C)CC(O)CO)c1I (centres unmarked) [Xen350, Iobitridol]
[1]; Table 3 Patient 1, t = 4 h, t = 0 h value 832
  Urotensin II: 999 pg/mL
[1]; Table 3 Patient 1, t = 24 h, t = 0 h value 832
  Urotensin II: 2591 pg/mL
[1]; Table 3 Patient 2, t = 4 h, t = 0 h value 1043
  Urotensin II: 1131 pg/mL
[1]; Table 3 Patient 2, t = 24 h, t = 0 h value 1043
  Urotensin II: 39441 pg/mL
[1]; t = 4 h
  Urotensin II, median: 1.23 μg/g Creatinine
[1]; t = 24 h
  Urotensin II, median: 1.77 μg/g Creatinine
[2]
  L-FABP urine level: 21 μg/g Creatinine
[3]
  increase of median urotensin II in urine: 350%
[4]
  increase of median creatinine in urine: 41%
[5]
  Urotensin II urine level: 6 μg/g Creatinine
[6]
  adiponectin urine level: 1.55 μg/g Creatinine
[7]; [13]
  increase of median adiponectin in urine: 400%
[7]; Patient 1, 50 ml
  Adiponectin Changes: −88%
[7]; Patient 1, 50 ml, 0 h value 0.92
  24 h Adiponectin: 0.11 ug/g Crea
[7]; Patient 2, 80 ml
  Adiponectin Changes: −22%
[7]; Patient 2, 80 ml, 0 h value 2.99
  24 h Adiponectin: 2.34 ug/g Crea
[7]; Patient 3, 100 ml
  Adiponectin Changes: −44%
[7]; Patient 3, 100 ml, 0 h value 2.68
  24 h Adiponectin: 1.49 ug/g Crea
[7]; Patient 4, 150 ml
  Adiponectin Changes: −91%
[7]; Patient 4, 150 ml, 0 h value 0.32
  24 h Adiponectin: 0.03 ug/g Crea
[7]; Patient 5, 220 ml
  Adiponectin Changes: 897%
[7]; Patient 5, 220 ml, 0 h value 0.41
  24 h Adiponectin: 3.68 ug/g Crea
[7]; Patient 6, 350 ml
  Adiponectin Changes: 690%
[7]; Patient 6, 350 ml, 0 h value 0.1
  24 h Adiponectin: 0.69 ug/g Crea
[8]; 24 hours after administration, before 0.9
  creatinine serum level: 1 mg/dL
[8]; after two more days (after the 24 h monitoring)
  serum creatinine level: 2.5 mg/dL
[8]; after two more days, significantly reduced urine excretion
  renal outcome diagnosed: acute renal failure
[9]; t = 4 h
  Creatinine, median: 0.45 g/L
[9]; t = 24 h
  Creatinine, median: 1.05 g/L
[10]; [13]
  increase of median L-FABP in urine: 415%
[10]; Patient 1, 50 ml
  L-FABP Changes: −45%
[10]; Patient 1, 50 ml, 0 h value 20.19
  24 h L-FABP: 11.17 ug/g Crea
[10]; Patient 2, 80 ml
  L-FABP Changes: 49%
[10]; Patient 2, 80 ml, 0 h value 42.71
  24 h L-FABP: 63.48 ug/g Crea
[10]; Patient 3, 100 ml
  L-FABP Changes: 40%
[10]; Patient 3, 100 ml, 0 h value 13.77
  24 h L-FABP: 19.33 ug/g Crea
[10]; Patient 4, 150 ml
  L-FABP Changes: 481%
[10]; Patient 4, 150 ml, 0 h value 6.8
  24 h L-FABP: 32.74 ug/g Crea
[10]; Patient 5, 220 ml
  L-FABP Changes: 544%
[10]; Patient 5, 220 ml, 0 h value 13.1
  24 h L-FABP: 71.23 ug/g Crea
[10]; Patient 6, 350 ml
  L-FABP Changes: 406%
[10]; Patient 6, 350 ml, 0 h value 4.36
  24 h L-FABP: 17.71 ug/g Crea
[11]; t = 4 h
  Adiponectin, median: 0.89 μg/g Creatinine
[11]; t = 24 h
  Adiponectin, median: 1.09 μg/g Creatinine
[12]; Table 3 Patient 1, t = 4 h, t = 0 h value 12
  L-FABP: 6 μg/g Creatinine
[12]; Table 3 Patient 1, t = 24 h, t = 0 h value 12
  L-FABP: 26 μg/g Creatinine
[12]; Table 3 Patient 2, t = 4 h, t = 0 h value 5
  L-FABP: 6 μg/g Creatinine
[12]; Table 3 Patient 2, t = 24 h, t = 0 h value 5
  L-FABP: 33 μg/g Creatinine
[12]; t = 4 h
  L-FABP, median: 12.16 μg/g Creatinine
[12]; t = 24 h
  L-FABP, median: 26.03 μg/g Creatinine
